Five compounds from patent US20260374750A1, “LIGANDS SPECIFICALLY TARGETING VESICULAR GLUTAMATE TRANSPORTERS FOR SUPER-RESOLUTION IMAGING” (SORBONNE UNIVERSITÉ, priority 2021, published 2026) can be followed below.

One assay deals with BON WT cells. As to the kind of experiment: Confocal fluorescence labeling of wild-type BON cells. The format is cell-based, human. The settings on record: FIG. 2. As to the method:
(§1) The experiments are carried out with a BON cell line stably expressing VGLUT3 or a fluorescent VGLUT2 “VGLUT2-venus”. Wild non-transfected BON cells (“wild-type”, BON WT) are used as controls. The cells are cultured in F-12 Nutrient Mixture Ham medium (21765-029, Thermo Fisher Scientific) and Dulbecco's Modified Eagle's Medium High Glucose (DMEM HG, 31966021, Thermo Fisher Scientific; volume/volume), supplemented with 10% fetal calf serum (FCS, 12483012, Thermo Fisher Scientific) and 1% (volume/volume) of a mixture of streptomycin (10 mg/mL)/penicillin (10,000 U/mL) and […] an incubator at 37 °C under 5% CO2. For the transfected clones, the medium is enriched with 0.8 mg/mL Geneticin G418 sulfate (G418, 10131027, Thermo Fisher Scientific).
(§2) Two days before each experiment, after trypsinization of the cells from a culture flask, the cell suspension is seeded at 150,000 cells/well, in twelve-well plates on glass coverslips 19 mm in diameter. For observation, these coverslips are placed in a chamber allowing a hermetic fixation of the coverslip in the observation medium, Fluorobrite™ DMEM (A1896701, Thermo Fisher Scientific), a transparent medium.
(§3) Before each observation, the cells are incubated at 37 °C in the presence of fluorescent ligands, at previously determined concentrations. The effect of a pretreatment of BON cells with a specific inhibitor of VGLUTs, the substance LSP5-2157, is also performed to study the inhibitory effect of this substance on the labeling of BON cells with the fluorescent ligands of the invention.
(§4) The cells are observed in real time under an inverted confocal microscope, with a 63× objective in a room thermostated at 37 °C (Leica TCS SP5; cellular imaging platform of the Paris-Seine Institute of Biology). The studied fluorescent molecules emit in the blue, the cells are excited at 405 nm.
(§5) FIG. 2 illustrates the observation and quantification of the BON cells under a confocal microscope, and the inhibition of the fluorescent signal by a pretreatment of the cells with the specific VGLUT inhibitor, LSP5-2157. […] The images are presented in negative. D,H,L and P: Quantification of the treatment effect.

Assay [1] relates to VGLUT3 (BON VGLUT3 cells). Description: Confocal fluorescence labeling of BON cells expressing VGLUT3. It is filed as cell-based, human (BON cells). The settings on record: for fluorescence intensity in BON VGLUT3 cells relative to BON WT cells / labeling in cytoplasm of BON VGLUT3 cells / effect of LSP5 pretreatment on fluorescence intensity in BON VGLUT3 cells: FIG. 2; for fluorescence intensity in BON VGLUT3 cells relative to BON WT cells / labeling in cytoplasm of BON VGLUT3 cells: 1 h; for fluorescence intensity in BON VGLUT3 cells relative to BON WT cells / labeling in cytoplasm of BON VGLUT3 cells / intensity of labeling in BON VGLUT3 cells relative to BON WT cells: 37 °C; for effect of LSP5 pretreatment on fluorescence intensity in BON VGLUT3 cells: pretreatment with LSP5-2157; for intensity of labeling in BON VGLUT3 cells relative to BON WT cells: FIG. 3, 20 minutes. On the procedure:
A “BON” cell line describes cells derived from human pancreatic carcinoma; the article by Ramet L. et al., published in J Neurosci, 2017, 37 (15), 4181-4199, describes such cells and the use thereof for the characterization of VGLUT type transporters.
as §1
The cells are cultured in 25 cm^2 culture flasks. When the cells are at confluence, they are rinsed with sterile PBS 1× after aspiration of the medium, then incubated for five minutes at 37 °C with a solution of trypsin-EDTA (0.05% trypsin EDTA, 25300054, Thermo Fisher Scientific. The cell layer is then detached and the cells dissociated from each other. After addition of medium, the cell suspension is centrifuged for 5 minutes at 300 g, then the pellet is diluted 1:3 in order to be recultivated.
as §2, §3, §4, §5
Different acquisitions of cells are carried out using a confocal microscope. […] Statistical analysis: Kruskal-Wallis test followed by Dunn's post-hoc test, NS: non-significant, *p<0.01; ***p<0.0001.
FIG. 3 illustrates the observation and quantification of BON cells using a confocal microscope. Wild-type cells (BON WT) or VGLUT3-expressing cells (BON VGLUT3) are incubated with different fluorescent ligands referenced: L8, YL151, D04, C07, C05, B09, G02, F11. After treatment with fluorescent ligands for 20 minutes at 37 °C, a fluorescent labeling is visible in BON cells. The effect of the treatment is analyzed by quantifying the fluorescence intensity in each cell type. […] Statistical analysis: Mann Whitney test, NS: non-significant, **p=0.0042; ***p<0.0001.

The test system of a further assay is striatum slices. Description: Fluorescent labeling of striatum slices. The following applies: 25 μM, 1 h, 37 °C. It is filed as cell-based, mouse. As to the method: The compatibility of the fluorescent compounds of the invention was determined in brain slices from newborns mice, a study model with greater integrity than cell culture. Mice aged 4 to 7 days are decapitated. The brains are removed and then placed in Neurobasal™-A Medium (10888022, ThermoFisher Scientific) enriched with 2% B-27™ Plus (A3582801, ThermoFisher Scientific) and 1% (volume/volume) of a mixture of streptomycin (10 mg/mL)/penicillin (10,000 U/mL). The brains are cut into 500 μm thick slices (McIlwain Tissue Chopper, model TC752) then dissociated from each other. The slices corresponding to the striatum are selected and incubated for one hour in the medium in the presence of 25 μM of fluorescent ligand, or without fluorescent molecule for the controls. Incubations in the presence or absence of the reference VGLUT inhibitor were carried out.
The brain slices were incubated in the presence of each of the compounds according to the invention D04, C07, C05, B09, L8, YL151, G02, F11 (See reference correspondences in Table 1). FIG. 4 illustrates the quantification of fluorescence of striatum slices after incubation in the presence of fluorescent compounds of the invention. […] Acquisitions were carried out using a confocal microscope (×5 objective) and the average fluorescence intensity for each slice was quantified. […]

Regarding `O=C(O)c1cc(C(=O)O)c2cc(-c3ccc(-c4ccccc4)cc3)ccc2n1` [LSP13-1152-YL152 (L8), 6-(Biphenyl-4-yl) quinoline-2,4-dicarboxylic Acid], the “labeling in cytoplasm of BON WT cells” value in the assay on BON WT cells was “a weak and homogeneous labeling is detected”. In assay [1], the “fluorescence intensity in BON VGLUT3 cells relative to BON WT cells” value is listed as “significantly increases”, the “labeling in cytoplasm of BON VGLUT3 cells” value is listed as “a punctiform labeling appears”, the “effect of LSP5 pretreatment on fluorescence intensity in BON VGLUT3 cells” value is “decreases the fluorescence intensity” and the “intensity of labeling in BON VGLUT3 cells relative to BON WT cells” value was “increases significantly”.
Take `COc1cc2oc(=O)c(C(=O)O)cc2cc1-n1cc(-c2ccc(-c3ccc(N)cc3)cc2)nn1` [LSP17-1124, 6-(4-(4′-amino-[1,1′-biphenyl]-4-yl)-1H-1,2,3-triazol-1-yl)-7-methoxy-2-oxo-2H-chromene-3-carboxylic Acid]: the “intensity of labeling in BON VGLUT3 cells relative to BON WT cells” value in assay [1] was “increases significantly”.
As to `Nc1ccc(-c2ccc(C#Cc3cc4cc(C(=O)O)c(=O)oc4cc3O)cc2)cc1` [LSP17-1173, 6-((4′-amino-[1,1′-biphenyl]-4-yl)ethynyl)-7-hydroxy-2-oxo-2H-chromene-3-carboxylic Acid], in the assay with BON WT cells, the “labeling in cytoplasm of BON WT cells” value was “a weak and homogeneous labeling is detected”. In the assay with striatum slices, the “difference between ester (F11) and acid (G02) labeling of slices” value is “no significant difference between the compounds G02 and F11”. Besides, in assay [1], the “fluorescence intensity in BON VGLUT3 cells relative to BON WT cells” value is “significantly increases”, the “labeling in cytoplasm of BON VGLUT3 cells” value was “a punctiform labeling appears”, the “effect of LSP5 pretreatment on fluorescence intensity in BON VGLUT3 cells” value is reported as “decreases the fluorescence intensity” and the “intensity of labeling in BON VGLUT3 cells relative to BON WT cells” value is “increases significantly”.
Take `Nc1ccc(-c2ccc(-c3cn(-c4ccc5oc(=O)c(C(=O)O)cc5c4)nn3)cc2)cc1` [LSP17-1115, 6-(4-(4′-amino-[1,1′-biphenyl]-4-yl)-1H-1,2,3-triazol-1-yl)-2-oxo-2H-chromene-3-carboxylic Acid]: the “intensity of labeling in BON VGLUT3 cells relative to BON WT cells” value in assay [1] was “increases significantly”.
`CCOC(=O)c1cc2cc(C#Cc3ccc(-c4ccc(N)cc4)cc3)c(O)cc2oc1=O` [F11, Ethyl-6-((4′-amino-[1,1′-biphenyl]-4-yl)ethynyl)-7-hydroxy-2-oxo-2H-chromene-3-carboxylate]: the “difference between ester (F11) and acid (G02) labeling of slices” value with striatum slices is “no significant difference between the compounds G02 and F11”. For the same compound, the “intensity of labeling in BON VGLUT3 cells relative to BON WT cells” value in assay [1] is reported as “increases significantly”.
